Measurements from patent publication US20050080570A1, “Predicting probabilities of achieving a desired minimum trough level for an anti-infective agent” (priority 2003, published 2005).
Read-outs that look alike come from different tables or passages of the source.

What was measured:
[1] = 100% human serum; fourth study; cited from earlier work
[2] = average value across the studies

Compound	Protein-binding correction factor, Average [2]	Protein-binding correction factor, 100% HS [1]	Protein-binding correction factor, Average (human)
O=C1Nc2ccc(Cl)cc2[C@@](C#CC2CC2)(C(F)(F)F)O1 [EFV, Efavirenz]	18.4	25.5	
Cc1c(O)cccc1C(=O)N[C@@H](CSc1ccccc1)[C@H](O)CN1C[C@H]2CCCC[C@H]2C[C@H]1C(=O)NC(C)(C)C [NFV, Nelfinavir]	46.1	90.6	
Cc1ccnc2c1NC(=O)c1cccnc1N2C1CC1 [NVP, Nevirapine]	1.3	1.2	
CC(C)(C)NC(=O)[C@@H]1C[C@@H]2CCCC[C@@H]2CN1C[C@@H](O)[C@H](Cc1ccccc1)NC(=O)[C@H](CC(N)=O)NC(=O)c1ccc2ccccc2n1 [SQV, Saquinavir]			23.4
